How the values were obtained:
[1] = system: Naïve CD4 T-cells; assay: qPCR of lineage genes in naïve CD4 T-cells cultured with DCCM; assay type: cell-based, C57BL/6J mice
Source text: (§1) Naïve CD4 T cells were isolated first by sorting with MACS® CD4^+ beads (Miltenyi Biotech, Auburn, Calif.) according to manufacturer's instructions and then by fluorescence activated cell sorting (FACS) using a MoFlo™, Vantage, or Influx™ cell sorter for CD25^−CD44^lowCD62L^high cells using allophycocyanin (APC)-conjugated anti-CD25 monoclonal antibody (mAb) (clone PC61.5), FITC-conjugated CD62L mAb (clone MEL-14), and PE-Cy5-conjugated CD44 mAb (clone IM7) (all from eBioscience™, San Diego, Calif.). Cells were grown in complete IMDM (Gibco, Carlsbad, Calif.) supplemented with 10% FBS, 100 μg/mL penicillin, 100 μg/mL streptomycin, 2 mM L-glutamine, 10 mM HEPES, and 1 nM sodium pyruvate, and activated on 48-well tissue-culture plates which had been coated with 4 μg anti-CD3 (clone 2C11) for 3 h at 37° C., then washed 3 times with PBS. Cultures were supplemented with 2 μg/mL anti-CD28 (clone 37-51, a kind gift from J. Allison, Sloan-Kettering Cancer Center) and anti-IL-4 ascites (clone 11B11, a kind gift from T. Moran, Mount Sinai School of Medicine, ATCC number HB188) at 1:500. mAbs 2C11 and 37-51 were purified from hybridoma supernatants by BioXCell Company (West Lebanon, N.H.). When cultured with conditioned medium (CM) from BMDC, T cells were grown in 1:1 CM:fresh complete IMDM. […]
T cells cultured for 48 hours under the indicated conditions were lysed and RNA isolated by TRIzol® extraction (Invitrogen) according to manufacturer's instructions. […] Quantitative real-time, reverse transcription polymerase chain reaction (qPCR) was conducted on an ABI Prism® 7900 instrument (Applied Biosystems, Foster City, Calif.) with primer pairs and probes as follows. […]
Quantitative PCR was performed using TaqMan® quantitative PCR Master Mix at a concentration of 1× (Applied Biosystems). […] “Fold inductions” were calculated using the ΔΔCt method relative to T cells activated under neutral conditions (No cytokines or CM). […]

[2] = system: Naïve CD4 T-cells; assay: In vitro T-cell differentiation in DC conditioned medium, IL-17/IL-10 in supernatants by ELISA; assay type: cell-based, C57BL/6J mice
Protocol: Bone marrow (BM)-derived GM-CSF DC cultures were grown in RPMI supplemented with GM-CSF and 5% foetal bovine serum (FBS), plus 100 μg/mL penicillin, 100 μg/mL streptomycin, 2 mM L-glutamine, 10 mM HEPES, 1 nM sodium pyruvate, 1×MEM nonessential amino acids, and 2.5 μM β-mercaptoethanol (all from Sigma-Aldrich, St. Louis, Mo.), as previously dcseribed^1. Semi-adherent cells were harvested on ice on day 5 and re-plated immediately in fresh GM-CSF medium at 1×10^6 cells/well in 24-well tissue culture-treated plates. Soluble or phagocytic stimuli were added right away to the plates in the same medium and the cells were centrifuged for 2 min at 2000 rpm. Supernatants (conditioned medium, CM) were collected after 18 hours. LPS (from E. coli, serotype 055:B5, L-2880) was purchased from Sigma-Aldrich. BMDC were treated with various doses of soluble LPS or 2:1 A20 LPS blasts:DC to titrate the LPS such that levels of IL-6 produced by DC in response to these stimuli was similar. Soluble LPS was used at a final concentration of 1 ng/mL. The A20 B-cell line was obtained from the ATCC (TIB-208). A20 LPS blasts were prepared by culturing A20 cells at 1×10^6 cells/mL, 3 mL/well in 6-well tissue culture plates for four days in RPMI medium supplemented with 10% FBS, with 100 μg/mL penicillin, 100 μg/mL streptomycin, 2 mM L-glutamine, 10 mM HEPES, 1 nM sodium pyruvate, plus 25 μg/mL LPS, as previously described in Blander, J. M. and Medzhitov, R. (2004) Science 304(5673):1014. […] Cells were centrifuged, counted, and apoptosis was induced by UV irradiation at 350 mJ. […]
Naïve CD4 T cells were isolated first by sorting with MACS® CD4^+ beads (Miltenyi Biotech, Auburn, Calif.) according to manufacturer's instructions and then by fluorescence activated cell sorting (FACS) using a MoFlo™, Vantage, or Influx™ cell sorter for CD25^−CD44^lowCD62L^high cells using allophycocyanin (APC)-conjugated anti-CD25 monoclonal antibody (mAb) (clone PC61.5), FITC-conjugated CD62L mAb (clone MEL-14), and PE-Cy5-conjugated CD44 mAb (clone IM7) (all from eBioscience™, San Diego, Calif.). […]

[3] = system: Bone marrow DC; assay: TGF-β bioassay of DC conditioned medium (MFB-F11 SBE-SEAP reporter cells); assay type: cell-based, mice
Protocol: Analysis of bioactive TGF-β was performed as previously described in Tesseur, I. et al. (2006) BMC Cell Biol 7: 15. MFB-F11 mouse fibroblast cells stably transfected with a reporter plasmid consisting of TGF-β-responsive Smad-binding elements coupled to a secreted alkaline phosphatase reporter gene (SBE-SEAP) were seeded at 3×10^4 cells/well in 96-well flat bottom tissue culture plates and cultured overnight in DMEM supplemented with 10% FBS and penicillin/streptomycin (DMEM/P/S). Cells were washed twice with PBS and incubated in 50 μL serum-free DMEM for 2 hours. Conditioned medium from DC was diluted 1:5 in serum-free DMEM/P/S and 5 μL was added to the MFB-F11 cells. For detection of total TGF-β, diluted conditioned medium was activated by adding 1.5 μL 6M HCl to 150 μL of sample and incubating 10 minutes at room temperature. Neutralization was performed by adding 1.5 μL 6M NaOH. […] SEAP activity was measured using Great EscAPe™ SEAP Reporter System 3 (Clontech, Mountain View, Calif.) according to the manufacturer's protocol with 96-well white/flat bottom plates. Luciferase activity was measured with a FLUOStar Optima reader (BMG Labtech, Durham, N.C.). For each sample, the concentration of biologically active TGF-β was calculated as follows: (luciferase activity of bio-active TGF-β/luciferase activity for total TGF-β)×100. […]

[4] = system: Naïve CD4 T-cells; assay: CD4 T-cells in DCCM re-plated on anti-CD3 for 48 h with neutralizing mAbs or IL-23, cytokines by ELISA; assay type: cell-based, C57BL/6J mice; details: re-stimulation for 48 h in the presence of 10 ng/mL IL-23
Source text: as §1, with “PBS.” for “PBS. Cultures were supplemented with 2 μg/mL anti-CD28 (clone 37-51, a kind gift from J. Allison, Sloan-Kettering Cancer Center) and anti-IL-4 ascites (clone 11B11, a kind gift from T. Moran, Mount Sinai School of Medicine, ATCC number HB188) at 1:500. mAbs 2C11 and 37-51 were purified from hybridoma supernatants by BioXCell Company (West Lebanon, N.H.). When cultured with conditioned medium (CM) from BMDC, T cells were grown in 1:1 CM:fresh complete IMDM.”
Next, naïve CD4 T-cells were isolated from C57BL/6J mice and activated with 4 μg anti-CD3 and 2 μg/mL anti-CD28 plus anti-IL-4 with CM from C57BL/6J (WT) BMDC that had phagocytosed apoptotic LPS B cell-blasts. […] Cytokines were quantified in supernatants by ELISA. […]

## TGF-β
[1]; quantitative RT-PCR
  Foxp3 mRNA induction: highest induction

## curdlan
[2]; DC derived from MyD88−/−Trif−/− and Tlr4−/− mice, TGF-β concomitantly present
  induction of IL-17+ CD4 T-cells: able to direct induction of IL-17^+ CD4 T-cells

## lipopolysaccharide [free LPS]
[3]
  production of biologically active TGF-β by DC: did not
[2]; three days in CM, with IFN-γ neutralizing antibody
  IL-17 secreting CD4 T-cells: some induction of IL-17 secreting (IL-17^+) CD4 T-cells

B1: IL-12: cytokine (eBioscience), 10 ng/mL (protein, UniProt P43431 23-215; P43432 23-335, looked up)
Interleukin-12 subunit alpha: RVIPVSGPARCLSQSRNLLKTTDDMVKTAREKLKHYSCTAEDIDHEDITRDQTSTLKTCLPLELHKNESCLATRETSSTTRGSCLPPQKTSLMMTLCLGSIYEDLKMYQTEFQAINAALQNHNHQQIILDKGMLVAIDELMQSLNHNGETLRQKPPVGEADPYRVKMKLCILLHAFSTRVVTINRVMGYLSSA
Interleukin-12 subunit beta: MWELEKDVYVVEVDWTPDAPGETVNLTCDTPEEDDITWTSDQRHGVIGSGKTLTITVKEFLDAGQYTCHKGGETLSHSHLLLHKKENGIWSTEILKNFKNKTFLKCEAPNYSGRFTCSWLVQRNMDLKFNIKSSSSSPDSRAVTCGMASLSAEKVTLDQRDYEKYSVSCQEDVTCPTAEETLPIELALEARQQNKYENYSTSFFIRDIIKPDPPKNLQMKPLKNSQVEVSWEYPDSWSTPHSYFSLKFFVRIQRKKEKMKETEEGCNQKGAFLVEKTSTEVQCKGGNVCVQAQDRYYNSSCSKWACVPCRVRS
[1]; qPCR after 48 hours of culture
  expression of TH1 lineage-specific transcription factor T-bet: expressed the TH1 lineage-specific transcription factor

B2: IL-23: cytokine (eBioscience), 10 ng/mL (protein, UniProt Q9EQ14 22-196; P43432 23-335, looked up)
Interleukin-23 subunit alpha: VPRSSSPDWAQCQQLSRNLCMLAWNAHAPAGHMNLLREEEDEETKNNVPRIQCEDGCDPQGLKDNSQFCLQRIRQGLAFYKHLLDSDIFKGEPALLPDSPMEQLHTSLLGLSQLLQPEDHPRETQQMPSLSSSQQWQRPLLRSKILRSLQAFLAIAARVFAHGAATLTEPLVPTA
Interleukin-12 subunit beta: B1 Interleukin-12 subunit beta
[4]
  levels of IL-17 produced: only slightly increased the levels of IL-17 produced
  total levels of IL-10 produced: markedly impaired
